The source of these data is patent publication US8778871B2 (Takeda Pharmaceutical Company Limited, priority 2004, dated 2014).

Non-standard residues stand in square brackets, D forms with d. Residues, ends and D or L forms follow the SMILES beside them. *: point of attachment. Propanoyl(3-(3-pyridyl)) = O=C(CCc1cccnc1)*; Arg(Me) = CNC(=N)NCCC[C@H](N)C(=O)O; d4Pal = N[C@H](Cc1ccncc1)C(=O)O; azaGly = NNC(=O)O

Assay [1] can be described thus: Effect of elevating sugar level by metastin derivatives (blood glucose and glucagon). The settings on record: Wistar male rats; for blood glucose level: i.v. 80 nmol/kg (FIG. 10); for blood glucagon level: i.v. 80 nmol/kg (FIG. 11). The class given is in vivo, rat. The text has this: The value indicates (mean±SE) (n=5). Symbol * designates that the P-value is 0.05 or less, when compared to the saline group and symbol ** designates that the P-value is 0.01 or less, when compared to the saline group.
In the figure, symbols open circle, closed circle and closed triangle designate blood glucagon level in the saline group and the 80 nmol/kg KiSS1-305 (Compound No. 305) group, the 80 nmol/kg KiSS1-322 (Compound No. 322) group, respectively. The value indicates (mean±SE) (n=5). Symbol * designates that the P-value is 0.05 or less, when compared to the saline group.
An operation was performed in free moving mature Wistar male rats (weighing […] at the time of operation) in a manner similar to TEST EXAMPLE 1 to collect blood. After the operation, the animal was maintained overnight. […] To prevent blood clotting, 3 μl of 300 KIU/ml aprotinin solution containing 3 mg/ml EDTA had previously been filled in the syringe. […] Blood was collected from the jugular vein by 300 μl each 2, 5, 15, 30, 45 and 60 minutes starting from the intravenous injection. The collected blood was centrifuged (13,000 rpm, 5 minutes) with a high speed refrigerated centrifuge (MR-150, Tomy Seiko Co, Ltd.) to recover the supernatant (plasma). Glucose level in blood was measured using Fuji Drychem 3500 (FUJI FILM) and glucagon level in blood was measured using a glucagon kit “Daiichi” (Daiichi Radioisotope Laboratories Ltd.), as in TEST EXAMPLE 1 or 2.

Assay [2] is described as follows: Blood testosterone level decreasing effect in mature male rat (2 mM peptide solution, ALZET osmotic pump). The class given is in vivo. The settings on record: 2 mM peptide solution in distilled water, ALZET osmotic pump s.c., 6 days, Tables 28 and 29. Here is the method:
(§1) This peptide solution was filled in 5 ALZET osmotic pumps (Model 2001, 0.2 ml in volume, release rate: 0.001 ml/hr, DURECT Corporation). The ALZET pumps filled with the peptide solution were implanted subcutaneously in 5 CD(SD)IGS male rats of 9 weeks old after birth (Charles River Japan, Inc.) on the back under ether anesthesia by one pump for one animal. For negative control, distilled water (Otsuka Pharmaceutical Co., Ltd.) was filled in 5 ALZET osmotic pumps, which were similarly implanted in 5 male CD(SD)IGS rats (Charles River Japan, Inc.), respectively. These pump-implanted rats were fed for 6 days under normal feeding conditions. After weighing, the animal was decapitated to collect blood. After 0.03 ml/ml blood of aprotinin solution (Trasylol, Bayer) containing 0.1 mg/ml EDTA.2Na was added to blood, the mixture was centrifuged at 1,800 G for 25 minutes to isolate/recover plasma. From the plasma obtained, 0.05 ml was applied to radioimmunoassay (DPC.Total Testosterone Kit, Diagnostic Products Corporation) to measure the plasma testosterone level of each rat. The value below the limit of measurement (0.04 ng/ml of plasma level) in radioimmunoassay was treated as 0. A mean value of the testosterone levels from 5 rats receiving the peptide was calculated and a relative value (percent) of the mean value to a mean value from 5 rats receiving distilled water.

Assay [3] in a line: Action of reducing testosterone level in blood in mature male rat (1 mM peptide in 50% DMSO, ALZET osmotic pump). The format is in vivo. The settings on record: 1 mM peptide in 50% DMSO aqueous solution, ALZET osmotic pump s.c., six days.
Assay [4] is described as follows: Blood testosterone level decreasing effect in mature male rat (0.1 mM peptide solution). The format is in vivo. As to the method: as §1
In a manner similar to TEST EXAMPLE 14, evaluation was made using 0.1 mM peptide solution and a part of the results obtained are shown in TABLE 30.

For the molecule `CNC(=N)NCCC[C@H](NC(=O)[C@H](CC(C)C)NC(=O)NNC(=O)[C@H](Cc1ccccc1)NC(=O)[C@H](CO)NC(=O)[C@H](CC(N)=O)NC(=O)CCc1cccnc1)C(=O)N[C@@H](Cc1ccccc1)C(N)=O` [Compound No. 322, 3-(3-Pyridyl)propionyl-Asn-Ser-Phe-AzaGly-Leu-Arg(Me)-Phe-NH2] ({Propanoyl(3-(3-pyridyl))}-NSF[azaGly]L[Arg(Me)]F-NH2), in assay [1], the blood glucose level result is given as “increase in the blood glucose level” and the blood glucagon level result was “increase in the blood glucagon level”.

As for `CNC(=N)NCCC[C@H](NC(=O)[C@H](CC(C)C)NC(=O)NNC(=O)[C@H](Cc1ccccc1)NC(=O)[C@H](CO)NC(=O)[C@H](CC(N)=O)NC(=O)[C@@H](Cc1ccncc1)NC(=O)[C@H](N)Cc1ccc(O)cc1)C(=O)N[C@@H](Cc1ccccc1)C(N)=O` [Compound No. 305, D-Tyr-D-Pya(4)-Asn-Ser-Phe-AzaGly-Leu-Arg(Me)-Phe-NH2] (H-[dY][d4Pal]NSF[azaGly]L[Arg(Me)]F-NH2), the “Teststerone level in Blood” value in assay [2] stood at 2%. The “Testosterone level in Blood” value in assay [3] was determined as 2%. Further, the “Teststerone level in Blood” value in assay [4] worked out at 48%. Moreover, in assay [1], the blood glucose level result is “increase in the blood glucose level” and the blood glucagon level result is “increase in the blood glucagon level”.
